Measurements published in US20250241962A1, “METHODS AND COMPOSITIONS FOR INCREASING NEURONAL ACTIVITY AND SYNAPTIC PLASTICITY” (SanBio, Inc., priority 2024, published 2025).

What was measured:
[1] = system: vandefitemcel (or SB623 cells); test: PrestoBlue cell viability of vandefitemcel treated with CB-839; type: cell-based, human; details: incubation with CB-839, PrestoBlue HS
Procedure: Approximately 50 μL of conditioned medium (CM) was used to determine the glutamate concentration and cell viability. For this assay, PrestoBlue™ high-sensitivity (HS) Cell Viability Reagent (from Thermo Fisher Scientific, Waltham, MA) was used and the reaction absorbance of each sample was read after 2 hours of incubation following the manual procedure provided by the manufacturer.
Glutamate can be involved in cell metabolism, where it is transformed into α-ketoglutarate and then enters into the tricarboxylic acid cycle to generate ATP [25].

[2] = system: glutamate receptor; test: Glutamate receptor blockage on iFbN culture (MEA spike activity); type: cell-based, human; details: 50 μM
Procedure: Glutamatergic or GABAergic neurons, 9×10^4 cells per well or 1×10^5 cells per well, were plated in 25 μL volume cell in BrainPhys™ medium supplemented with NeuroCult™ SM1 neuronal supplement and incubated for 30-45 minutes at 37° C. and 5% CO2. For coculturing, vandefitemcel (or SB623) cells or astrocytes were cocultured by adding 10-20 μL of cell solution with 1.5×10^4 cells per well following a new incubation for 45 minutes at 37° C. and 5% CO2. Fresh medium was added to reach a volume of 400 μL per well and cells incubated at 37° C. and 5% CO2. Half of the medium volume was changed every three or four days. To isolate the presynaptic activity on MEAs with iFbNs after 50 days of culture, 50 μM of the broad glutamate receptor antagonist Kynurenic acid (from R&D Systems, Minneapolis, MN) was added at 90 seconds from the start of the recording. Spike activity was assessed to detect the blockage of glutamate receptor activity.
MEA recordings were performed at 37° C. and 5% CO2 using Maestro Edge (from Axion Biosystems, Atlanta, GA). The medium was changed at least two hours before the recordings. Before recordings, levels of CO2 were adjusted to 5%. The duration of each recording was five minutes using AxIS Navigator 3.6.2 with configuration module Neural Real-Time; Spontaneous+Viability from Axion Biosystems with minimum spike rate for active electrodes of five spikes/minute.

spike activity of iFbN culture [2] | Structure (SMILES) | viability of vandefitemcel [1]
– | O=C(Cc1cccc(OC(F)(F)F)c1)Nc1ccc(CCCCc2nnc(NC(=O)Cc3ccccn3)s2)nn1 [CB-839, Telaglenastat] | did not alter the viability
reduction in the spike activity | O=C(O)c1cc(=O)c2ccccc2[nH]1 [kynurenic acid, Kynurenic acid] | –
